Experimental data from patent US20100274022A1, “G PROTEIN-COUPLED RECEPTOR INHIBITOR AND PHARMACEUTICAL PRODUCT” (PHARMAFRONTIER CO., LTD., priority 2007, published 2010).

Molecular target: T1, humanGPR120 (Homo sapiens, UniProt Q5NUL3)
T1 construct: expressed in transfected cells
T1 sequence (Q5NUL3 1-377 isoform Q5NUL3-1 R67C/Q274H/I297T): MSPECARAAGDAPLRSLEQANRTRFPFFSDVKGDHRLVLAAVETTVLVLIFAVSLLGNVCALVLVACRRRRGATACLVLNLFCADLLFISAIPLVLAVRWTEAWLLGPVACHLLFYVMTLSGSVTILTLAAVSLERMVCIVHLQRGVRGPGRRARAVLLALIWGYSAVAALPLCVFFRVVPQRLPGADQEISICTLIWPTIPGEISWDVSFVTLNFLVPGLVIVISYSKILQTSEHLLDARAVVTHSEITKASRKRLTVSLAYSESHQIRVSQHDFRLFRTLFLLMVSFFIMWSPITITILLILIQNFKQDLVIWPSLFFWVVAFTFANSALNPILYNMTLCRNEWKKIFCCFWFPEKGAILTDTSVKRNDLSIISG
Assay: Inhibitory effect on activation (antagonistic activity): α-LA-stimulated increase in intracellular Ca2+ concentration measured by FLIPR in cells comprising GPR120
Format: cell-based

## (E)-3-{3-[2-(2-nonylpyridinylamino)ethoxy]phenyl}acrylic acid [ATG-19]
  antagonistic activity for GPR120 (result in words): significant antagonistic activity
